Experimental data from patent publication US20250032525A1 (priority 2021, published 2025).
Like-named read-outs stand apart in the source and are kept apart here.

Columns and labels:
Brcal^−/−;p53^−/− tumors = conditions: cited from earlier work
HCT-15 = conditions: HCT-15, NCI-60 database, sulforhodamine B; read-out: Cytotoxic IC50; cited from earlier work
NCI-60 cell lines = experiment: NCI DTP NCI-60 cell line screen database (sulforhodamine B), panel; type: cell-based; conditions: Homo sapiens
EKVX = conditions: NCI-60 database, sulforhodamine B, read-out: Cytotoxic IC50; cited from earlier work
UO-31 = conditions: UO-31, NCI-60 database, sulforhodamine B; read-out: Cytotoxic IC50; cited from earlier work
OVCAR-8 = conditions: OVCAR-8, NCI-60 database, sulforhodamine B; read-out: Cytotoxic IC50; cited from earlier work
MDA-MB-468 = experiment: In vitro cytotoxicity; type: cell-based; conditions: Homo sapiens; MDA-MB-468 breast cancer cell line
Excerpt: (§1) Experiments were repeated at least 3 times.

A431-B1 = experiment: In vitro cytotoxicity; type: cell-based
Excerpt: as §1

A431-G2 = experiment: In vitro cytotoxicity; type: cell-based
Excerpt: as §1

A431 = experiment: In vitro cytotoxicity; type: cell-based; conditions: Homo sapiens, A-431
Excerpt: as §1

P388/ADR = experiment: In vitro cytotoxicity; type: cell-based; conditions: Mus musculus
Excerpt: as §1

P388 = experiment: In vitro cytotoxicity; type: cell-based; conditions: Mus musculus
Excerpt: as §1

A498 = conditions: A498, NCI-60 database, sulforhodamine B; read-out: Cytotoxic IC50; cited from earlier work
SK-MEL-28 = conditions: SK-MEL-28, NCI-60 database, sulforhodamine B; read-out: Cytotoxic IC50; cited from earlier work
MES-SA/Dx5 xenografts = experiment: MES-SA/Dx5 xenograft tumors in mice; type: in vivo, NSG mice; conditions: multidrug resistant MES-SA/Dx5 tumors; DOX 2 mg/kg iv., LiPyDau 0.5 mg/kg iv. once per week
Experimental: 2×10^6 cells from each cell line in 200 μl serum-free culture media DMEM were inoculated into NOD.Cg-Prkdc^scid Il2rg^tm1Wjl/SzJ (NSG) mice subcutaneously in the left flank and treatment was initiated when tumors reached 200 mm^3. Mice were treated with saline (n=3 per each cell lines). […] The size of the tumors was measured every second day with a digital caliper.

[1] = In vivo toxicity (dose-finding) studies; set-up: species or system FVB mice; conditions: for Mortality (%) / Survival: single iv
Excerpt: PyDau and LiPyDau dose-finding studies were done using 10 weeks old FVB mice, by single intravenous injections of different doses of the compounds (3 mouse/dose) via the tail vein. The status of the mice was monitored daily for signs of pain or discomfort. Mice were euthanized at 20% body weight loss or at a low score (1 or 2) on the Body Condition Scoring scale. Survival was followed for 30 days and the Maximum Tolerable Dose (MTD) was defined as the highest dose where 100% survival was observed.

[2] = tested on: HT-29 human colon adenocarcinoma cells; conditions: reported by Mező; cited from earlier work
[3] = In vivo toxicity (dose-finding) studies; set-up: species or system FVB mice; conditions: 0.25 mg/kg given repeatedly, later experiments
[4] = Storage stability of PyDau; type: physicochemical; conditions: monomer form, −20° C.
Experimental: 2-pyrrolinodoxorubicin (PyDox) TFA salt was developed in 1996 (Nagy A. et al.; Proc. Natl. Acad. Sci. U.S.A. 93 (1996). 2464-2469). In the first step Nagy et al. applied 4-iodobutyraldehyde, that was prepared from 2-(3-chloropropyl)-1,3-dioxolane followed by Shiff-base formation and cyclization. The synthesis of 4-iodobutyraldehyde—which is the key step for efficient synthesis-was later improved by Studenovsky et al. (Eur. J. Pharm. Sci. 42 (2011). 156-163). […] Therefore, a new approach was investigated for the preparation of PyDau. First, the stable and storable 4-bromobutyraldehyde was applied for the synthesis. The reaction was carried out in DCM in the presence of excess DIPEA under nitrogen atmosphere at room temperature (RT) for 10 h.

[5] = tested on: panel of cell lines of various tissue of origin; experiment: In vitro cytotoxicity, panel of cell lines (PrestoBlue); type: cell-based, human; conditions: for IC50: Homo sapiens
Excerpt: as §1

MCF7 = experiment: In vitro cytotoxicity (PrestoBlue); conditions: Homo sapiens, MCF7, 72 h, read-out: Cytotoxic IC50
Experimental: Cells were seeded in 40 μl medium on 384 well plates by an automatic liquid handling machine (Hamilton StarLet) in a density of 2500 cells/well. Adherent cells were cultured for 24 h before the addition of the compounds, while drugs were added to non-adherent cells 2 h after cell seeding. The drugs were serially diluted, and dispensed in an additional 20 μl. Cells were incubated for an additional 72 h, cytotoxicity was assessed by the PrestoBlue viability reagent (Thermo Fisher). Experiments were repeated at least 3 times.

Which results are given for COc1cccc2c1C(=O)c1c(O)c3c(c(O)c1C2=O)C[C@@](O)(C(=O)CO)C[C@@H]3O[C@H]1C[C@H](N)[C@H](O)[C@H](C)O1 [DOX, doxorubicin]?
Outcome of treatment at MTD (Brcal^−/−;p53^−/− tumors; DOX 5 mg/kg, PLD 8 mg/kg, FIG. 10 from Füredi et al.): all tumors developed resistance; Maximum tolerable dose (MTD) (Brcal^−/−;p53^−/− tumors; iv., FVB mice with Brcal^−/−;p53^−/− tumors): 5 mg/kg; IC50 (HCT-15): 1200 nM; IC50 (NCI-60 cell lines; read-out: Cytotoxic IC50, av. breast): 190 nM; IC50 (NCI-60 cell lines; read-out: Cytotoxic IC50, av. colorectal): 296 nM; IC50 (NCI-60 cell lines; read-out: Cytotoxic IC50, av. leukaemia): 49.8 nM; IC50 (NCI-60 cell lines; read-out: Cytotoxic IC50, av. lung): 221 nM; IC50 (NCI-60 cell lines; read-out: Cytotoxic IC50, av. melanoma): 177 nM; IC50 (NCI-60 cell lines; read-out: Cytotoxic IC50, av. ovarian): 3650 nM; IC50 (NCI-60 cell lines; read-out: Cytotoxic IC50, av. prostatic): 173 nM; IC50 (NCI-60 cell lines; read-out: Cytotoxic IC50, av. renal): 247 nM; IC50 (EKVX): 484 nM; IC50 (UO-31): 553 nM; IC50 (OVCAR-8): 130 nM; IC50 (MDA-MB-468): 20 nM; IC50 (A431-B1): 2450 nM; IC50 (A431-G2): 170 nM; IC50 (A431): 65 nM; IC50 (P388/ADR; read-out: IC50): 2040 nM; IC50 (P388/ADR; read-out: IC50 + TQ, heading: IC50 + TQ, presence of 1 μM tariquidar): 690 nM; IC50 (P388): 150 nM; IC50 (A498): 85.5 nM; IC50 (SK-MEL-28): 242 nM; Response / overall survival (MES-SA/Dx5 xenografts): largely ineffective

Which Lethality ([1]; 3, 2, 1 and 0.5 mg/kg) does the source give for COc1cccc2c1C(=O)c1c(O)c3c(c(O)c1C2=O)C[C@@](O)(C(C)=O)C[C@@H]3O[C@H]1C[C@H]2[C@H](OC3CCCN32)[C@H](C)O1 (some centres unmarked) [PyDau, 2-deamino-2-pyrrolino-daunorubicin] here?
The Lethality was “lethal”.

What about the “Mortality (%)” value ([1]; PyDau dose 0.05 mg/kg) of the same compound?
The value was 0%.

And the “Survival” value ([1]; PyDau dose 0.05 mg/kg)?
Its value is over 30 days.

And the “Mortality (%)” value ([1]; PyDau dose 0.1 mg/kg)?
The value was 0%.

What about the “Survival” value ([1]; PyDau dose 0.1 mg/kg) of the same compound?
Its value is over 30 days.

What about the “Mortality (%)” value ([1]; PyDau dose 0.17 mg/kg) of the same compound?
The value was 0%.

And the “Survival” value ([1]; PyDau dose 0.17 mg/kg)?
The value was over 30 days.

And the “Mortality (%)” value ([1]; PyDau dose 0.25 mg/kg)?
The value was 0%.

What about the “Survival” value ([1]; PyDau dose 0.25 mg/kg) of the same compound?
Its value is over 30 days.

What about the “Mortality (%)” value ([1]; PyDau dose 0.5 mg/kg) of the same compound?
Its value is 100%.

What about the “Survival” value ([1]; PyDau dose 0.5 mg/kg) of the same compound?
The value was 11 days.

What about the “Mortality (%)” value ([1]; PyDau dose 1 mg/kg) of the same compound?
Its value is 100%.

And the “Survival” value ([1]; PyDau dose 1 mg/kg)?
The value was 4 days.

And the “Mortality (%)” value ([1]; PyDau dose 2 mg/kg)?
The value was 100%.

What about the “Survival” value ([1]; PyDau dose 2 mg/kg) of the same compound?
Its value is 2 days.

And the “Mortality (%)” value ([1]; PyDau dose 3 mg/kg)?
Its value is 100%.

What about the “Survival” value ([1]; PyDau dose 3 mg/kg) of the same compound?
The value was 2 days.

And the Safety window ([1]; dose-finding studies in mice)?
The Safety window was “too narrow”.

What about the MTD at 30 days ([1]; mouse, in vivo, single intravenous injection, FVB mice, highest dose with 100% survival over 30 days, read-out: Maximum Tolerable Dose (MTD)) of the same compound?
The MTD at 30 days was 0.25 mg/kg.

What about the IC50 [2] of the same compound?
Its IC50 is 0.2 nM.

What about the “Toxicity when given repeatedly” value [3] of the same compound?
The value was “still toxic”.

What about the Stability on storage [4] of the same compound?
Its Stability on storage is “stable for long time”.

What about the IC50 ([5]; average IC50 within the breast group, read-out: Cytotoxic IC50, av. breast) of the same compound?
Its IC50 is 3.23 nM.

What about the IC50 ([5]; average IC50 within the colorectal group, read-out: Cytotoxic IC50, av. colorectal) of the same compound?
The IC50 was 3.39 nM.

And the IC50 ([5]; average IC50 within the leukaemia group, read-out: Cytotoxic IC50, av. leukaemia)?
Its IC50 is 0.57 nM.

And the IC50 ([5]; average IC50 within the lung group, read-out: Cytotoxic IC50, av. lung)?
Its IC50 is 4.21 nM.

What about the IC50 ([5]; average IC50 within the melanoma group, read-out: Cytotoxic IC50, av. melanoma) of the same compound?
The IC50 was 4.08 nM.

And the IC50 ([5]; average IC50 within the ovarian group, read-out: Cytotoxic IC50, av. ovarian)?
The IC50 was 1.43 nM.

And the IC50 ([5]; average IC50 within the pancreatic group, read-out: Cytotoxic IC50, av. pancreatic)?
Its IC50 is 3.23 nM.

And the IC50 ([5]; average IC50 within the prostate group, read-out: Cytotoxic IC50, av. prostatic)?
Its IC50 is 1.93 nM.

And the IC50 ([5]; average IC50 within the renal group, read-out: Cytotoxic IC50, av. renal)?
Its IC50 is 5.2 nM.

What about the IC50 ([5]; panel of cell lines, FIG. 1, read-out: IC50 values ranging across every cell line of the panel) of the same compound?
The IC50 was 0.23 to 14.3 nM.

And the IC50 ([5]; panel of cell lines, typical range, read-out: IC50 values, typically)?
The IC50 was 1 to 10 nM.

What about the “Effectiveness against multidrug resistant cells” value ([5]; Pgp expressing multidrug resistant HCT-15 and NCI/ADR-RES cells) of the same compound?
The value was “effective”.

And the IC50 (MCF7)?
The IC50 was 5.73 nM.
